Key:
[1] = target: CDK13 (Homo sapiens, UniProt Q14004); assay: Biochemical assay for CDK13 (LanthaScreen Eu Kinase Binding Assay); settings: kinase tracer 236 100 nM, CDK13 5 nM
Protocol: LanthaScreen Eu Kinase Binding Assays are based on the binding and displacement of Alexa Fluor 647-labeled, ATP-competitive kinase inhibitor scaffold (kinase tracer) to the kinase of interest. Binding of the kinase tracer 236 (100 nM) to the CDK13 (5 nM) kinase is detected using a europium-labelled anti- GST tag antibody (2 nM), which binds to the kinase. Simultaneous binding of the tracer and antibody to the kinase results in a high degree of FRET (fluorescence resonance energy transfer) from the europium (Eu) donor fluorophore to the Alexa Fluor™ 647 acceptor fluorophore on the kinase tracer. Binding of an inhibitor to the kinase competes for binding with the tracer, resulting in a loss of FRET signal.

[2] = target: T1, CDK7 (Homo sapiens, UniProt P50613); assay: Biochemical assay for CDK7 (LANCE TR-FRET, ULight-MBP phosphorylation); settings: CDK7 10 nM, ATP 1 mM/100 μM, 60 min pre-incubation
Protocol: The inhibitory activity of the test compounds was assessed by the LANCE TR-FRET assay, which detects the ATP-dependent phosphorylation of an ULight-myelin basic protein (MBP) substrate peptide (100 nM) by CDK7 (10 nM). Briefly, the enzyme reaction was run in reaction buffer (20 mM HEPES (pH 7.5), 10 mM MgCl2, 0.01% Triton x, 100 μM Sodium Orthovanadate, 1 mM DTT). The assay was performed in 384-well plate. The end concentration of the ATP substrate was 1 mM/100 μM, and that of the ULight-MBP substrate peptide was 100 nM, and of CDK7 was 10 nM. Pre-incubation of the compound and enzyme was performed for 60 min at room temperature. After 60 min incubation at room temperature, the reaction was terminated by the addition of 40 mM EDTA and 1 nM Eu-labeled anti-phospho-MBP-binding protein antibody in the buffer. Time-resolved fluorescence (excitation, 320 nm; emission donor, 615 nm; emission acceptor, 665 nm) was monitored by using 2030 multilabel reader Victor5 (PerkinElmer). The readout was calculated as (acceptor counts/donor counts)×1000. The IC50 values were derived by fitting a sigmoidal dose-response curve to a plot of assay readout over inhibitor concentration. All fits were computed with the program Prism 5.03 (Graph Pad Software, San Diego, Calif.).
Target sequence in this assay (P50613 whole entry, species assumed): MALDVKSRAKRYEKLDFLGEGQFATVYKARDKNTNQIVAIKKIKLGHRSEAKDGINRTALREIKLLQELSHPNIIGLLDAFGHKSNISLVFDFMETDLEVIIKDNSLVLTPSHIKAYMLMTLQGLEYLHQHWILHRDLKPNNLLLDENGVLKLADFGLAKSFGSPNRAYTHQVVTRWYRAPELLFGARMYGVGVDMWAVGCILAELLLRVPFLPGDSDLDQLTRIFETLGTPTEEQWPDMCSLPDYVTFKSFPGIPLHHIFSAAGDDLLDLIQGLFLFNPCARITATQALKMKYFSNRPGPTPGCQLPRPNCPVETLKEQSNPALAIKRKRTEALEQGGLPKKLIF
Target sequence in this assay (P51946 whole entry partner, species assumed): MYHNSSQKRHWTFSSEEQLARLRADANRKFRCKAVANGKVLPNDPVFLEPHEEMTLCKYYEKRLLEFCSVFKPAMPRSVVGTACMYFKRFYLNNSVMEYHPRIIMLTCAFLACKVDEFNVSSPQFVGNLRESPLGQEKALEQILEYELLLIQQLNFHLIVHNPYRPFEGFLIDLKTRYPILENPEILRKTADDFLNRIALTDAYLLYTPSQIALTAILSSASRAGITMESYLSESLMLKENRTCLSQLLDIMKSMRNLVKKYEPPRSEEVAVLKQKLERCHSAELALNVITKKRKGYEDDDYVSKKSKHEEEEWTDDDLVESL
Target sequence in this assay (P51948 whole entry partner, species assumed): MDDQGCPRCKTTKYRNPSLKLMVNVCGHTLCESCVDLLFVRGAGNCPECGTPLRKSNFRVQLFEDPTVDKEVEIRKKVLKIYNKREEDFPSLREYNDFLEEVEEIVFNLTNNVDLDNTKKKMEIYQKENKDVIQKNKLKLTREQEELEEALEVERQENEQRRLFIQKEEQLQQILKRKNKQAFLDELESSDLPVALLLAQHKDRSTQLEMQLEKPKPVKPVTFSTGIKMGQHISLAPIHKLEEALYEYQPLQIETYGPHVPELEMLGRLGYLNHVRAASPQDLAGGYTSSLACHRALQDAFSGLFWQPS

[3] = target: T2, CDK12 (Homo sapiens, UniProt Q9NYV4); assay: Biochemical assay for CDK12 (kinase-tagged phage / qPCR competition binding); set-up: host or cells: E. coli BL21-derived host (T7 phage display) or HEK-293
Protocol: Kinase-tagged T7 phage strains were grown in parallel in 24-well blocks in an E. coli host derived from the BL21 strain. E. coli were grown to log-phase and infected with T7 phage from a frozen stock (multiplicity of infection=0.4) and incubated with shaking at 32° C. until lysis (90-150 minutes). The lysates were centrifuged (6,000×g) and filtered (0.2 μm) to remove cell debris. The remaining kinases were produced in HEK-293 cells and subsequently tagged with DNA for qPCR detection. Streptavidin-coated magnetic beads were treated with biotinylated small molecule ligands for 30 minutes at room temperature to generate affinity resins for kinase assays. The liganded beads were blocked with excess biotin and washed with blocking buffer (SeaBlock (Pierce), 1% BSA, 0.05% Tween 20, 1 mM
DTT) to remove unbound ligand and to reduce non-specific phage binding. Binding reactions were assembled by combining kinases, liganded affinity beads, and test compounds in lx binding buffer (20% SeaBlock, 0.17×PBS, 0.05% Tween 20, 6 mM DTT). Test compounds were prepared as 40× stocks in 100% DMSO and directly diluted into the assay. All reactions were performed in polypropylene 384-well plates in a final volume of 0.02 ml. The assay plates were incubated at room temperature with shaking for 1 hour and the affinity beads were washed with wash buffer (1 PBS, 0.05% Tween 20). The beads were then re-suspended in elution buffer (1× PBS, 0.05% Tween 20, 0.5 μM non-biotinylated affinity ligand) and incubated at room temperature with shaking for 30 minutes. The kinase concentration in the eluates was measured by qPCR.
Target sequence in this assay (Q9NYV4 whole entry, species assumed): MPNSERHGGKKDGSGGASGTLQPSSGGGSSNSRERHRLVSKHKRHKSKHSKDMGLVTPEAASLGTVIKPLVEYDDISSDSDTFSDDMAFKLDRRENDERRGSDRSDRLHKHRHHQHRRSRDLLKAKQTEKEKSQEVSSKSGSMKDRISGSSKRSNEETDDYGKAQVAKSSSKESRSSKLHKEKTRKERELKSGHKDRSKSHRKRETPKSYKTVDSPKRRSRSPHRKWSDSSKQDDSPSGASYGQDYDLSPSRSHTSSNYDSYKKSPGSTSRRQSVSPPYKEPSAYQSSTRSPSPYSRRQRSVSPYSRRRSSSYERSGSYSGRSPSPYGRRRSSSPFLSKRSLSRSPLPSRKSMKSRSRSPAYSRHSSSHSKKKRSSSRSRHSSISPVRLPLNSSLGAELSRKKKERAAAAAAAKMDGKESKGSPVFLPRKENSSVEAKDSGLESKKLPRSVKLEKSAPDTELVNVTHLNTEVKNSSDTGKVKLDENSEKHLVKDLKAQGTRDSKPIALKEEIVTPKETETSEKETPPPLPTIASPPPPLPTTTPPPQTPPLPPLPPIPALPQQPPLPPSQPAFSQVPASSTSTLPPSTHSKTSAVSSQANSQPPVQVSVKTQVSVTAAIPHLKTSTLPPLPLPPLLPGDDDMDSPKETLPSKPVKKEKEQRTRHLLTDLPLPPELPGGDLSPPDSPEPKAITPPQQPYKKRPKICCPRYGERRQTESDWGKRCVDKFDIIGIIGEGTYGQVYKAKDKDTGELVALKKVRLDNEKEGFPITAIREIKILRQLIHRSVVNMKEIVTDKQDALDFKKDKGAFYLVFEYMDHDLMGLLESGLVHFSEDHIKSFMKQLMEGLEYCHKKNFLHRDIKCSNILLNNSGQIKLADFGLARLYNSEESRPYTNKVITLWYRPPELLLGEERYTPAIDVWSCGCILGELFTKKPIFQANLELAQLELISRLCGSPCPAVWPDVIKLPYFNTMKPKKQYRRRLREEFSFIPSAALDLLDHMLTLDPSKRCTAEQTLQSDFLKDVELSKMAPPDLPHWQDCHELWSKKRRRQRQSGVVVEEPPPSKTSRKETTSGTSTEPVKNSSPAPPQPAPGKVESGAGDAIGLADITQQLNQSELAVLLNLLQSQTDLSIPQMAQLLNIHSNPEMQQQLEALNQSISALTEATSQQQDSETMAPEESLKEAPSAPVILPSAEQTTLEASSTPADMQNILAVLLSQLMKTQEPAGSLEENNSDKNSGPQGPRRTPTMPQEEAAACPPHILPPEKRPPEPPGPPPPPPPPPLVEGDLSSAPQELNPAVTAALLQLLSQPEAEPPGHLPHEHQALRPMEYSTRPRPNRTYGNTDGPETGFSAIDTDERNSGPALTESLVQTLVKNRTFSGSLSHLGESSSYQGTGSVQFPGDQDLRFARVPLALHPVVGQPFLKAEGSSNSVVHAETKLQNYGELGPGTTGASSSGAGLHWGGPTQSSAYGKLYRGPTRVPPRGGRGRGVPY

[4] = target: T1, CDK7; assay: CDK7 target occupancy in Jurkat cells; type: cell-based; set-up: endogenous in cells; host or cells: Jurkat
Target sequence in this assay (P50613 2-346 limits assumed): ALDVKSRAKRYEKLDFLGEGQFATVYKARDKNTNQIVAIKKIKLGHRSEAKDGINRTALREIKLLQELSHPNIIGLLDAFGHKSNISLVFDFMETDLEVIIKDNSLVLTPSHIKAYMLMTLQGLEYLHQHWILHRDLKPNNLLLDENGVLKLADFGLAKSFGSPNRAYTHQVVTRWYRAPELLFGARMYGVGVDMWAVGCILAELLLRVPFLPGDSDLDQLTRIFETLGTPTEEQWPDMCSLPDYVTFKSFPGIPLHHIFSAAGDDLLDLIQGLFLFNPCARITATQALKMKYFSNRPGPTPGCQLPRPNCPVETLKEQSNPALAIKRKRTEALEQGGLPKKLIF
Target sequence in this assay (P51946 whole entry partner): as the sequence (P51946 whole entry partner, species assumed) above
Target sequence in this assay (P51948 whole entry partner): as the sequence (P51948 whole entry partner, species assumed) above

[5] = target: T2, CDK12; assay: CDK12 plate based target engagement assay in Jurkat cells; type: cell-based; set-up: endogenous in cells; host or cells: Jurkat; settings: 6 hours treatment, Bio-THZ531 competition
Protocol: Jurkat cells were treated with varying concentrations of the compound for 6 hours. The DMSO concentration was maintained at 0.1%. Cells were harvested and lysed. 200 μg of the lysate was incubated with 1 μM Bio-THZ531 in the presence of 1mM DTT and incubated on a rocker at 4° C. overnight. 100 μL of this sample was added to pre-washed streptavidin coated plates and incubated at room temperature on a rocker for 2 hours. The plates were washed and incubated with CDK12 antibody for overnight at 4° C. Next day the plate was washed and incubated for 2 hours with HRP labelled anti rabbit secondary antibody. Bio-THZ531 bound CDK12 was determined using TMB substrate. The plates were read using the M3 spectrophotometer at […]. Percentage CDK12 occupancy with the test compound was calculated over untreated control. Occupancy50 was calculated by fitting the dose response data to sigmoidal curve fitting equation using GraphPad Prism software V5.

Chain of CDK13 (Q14004 whole entry, species assumed): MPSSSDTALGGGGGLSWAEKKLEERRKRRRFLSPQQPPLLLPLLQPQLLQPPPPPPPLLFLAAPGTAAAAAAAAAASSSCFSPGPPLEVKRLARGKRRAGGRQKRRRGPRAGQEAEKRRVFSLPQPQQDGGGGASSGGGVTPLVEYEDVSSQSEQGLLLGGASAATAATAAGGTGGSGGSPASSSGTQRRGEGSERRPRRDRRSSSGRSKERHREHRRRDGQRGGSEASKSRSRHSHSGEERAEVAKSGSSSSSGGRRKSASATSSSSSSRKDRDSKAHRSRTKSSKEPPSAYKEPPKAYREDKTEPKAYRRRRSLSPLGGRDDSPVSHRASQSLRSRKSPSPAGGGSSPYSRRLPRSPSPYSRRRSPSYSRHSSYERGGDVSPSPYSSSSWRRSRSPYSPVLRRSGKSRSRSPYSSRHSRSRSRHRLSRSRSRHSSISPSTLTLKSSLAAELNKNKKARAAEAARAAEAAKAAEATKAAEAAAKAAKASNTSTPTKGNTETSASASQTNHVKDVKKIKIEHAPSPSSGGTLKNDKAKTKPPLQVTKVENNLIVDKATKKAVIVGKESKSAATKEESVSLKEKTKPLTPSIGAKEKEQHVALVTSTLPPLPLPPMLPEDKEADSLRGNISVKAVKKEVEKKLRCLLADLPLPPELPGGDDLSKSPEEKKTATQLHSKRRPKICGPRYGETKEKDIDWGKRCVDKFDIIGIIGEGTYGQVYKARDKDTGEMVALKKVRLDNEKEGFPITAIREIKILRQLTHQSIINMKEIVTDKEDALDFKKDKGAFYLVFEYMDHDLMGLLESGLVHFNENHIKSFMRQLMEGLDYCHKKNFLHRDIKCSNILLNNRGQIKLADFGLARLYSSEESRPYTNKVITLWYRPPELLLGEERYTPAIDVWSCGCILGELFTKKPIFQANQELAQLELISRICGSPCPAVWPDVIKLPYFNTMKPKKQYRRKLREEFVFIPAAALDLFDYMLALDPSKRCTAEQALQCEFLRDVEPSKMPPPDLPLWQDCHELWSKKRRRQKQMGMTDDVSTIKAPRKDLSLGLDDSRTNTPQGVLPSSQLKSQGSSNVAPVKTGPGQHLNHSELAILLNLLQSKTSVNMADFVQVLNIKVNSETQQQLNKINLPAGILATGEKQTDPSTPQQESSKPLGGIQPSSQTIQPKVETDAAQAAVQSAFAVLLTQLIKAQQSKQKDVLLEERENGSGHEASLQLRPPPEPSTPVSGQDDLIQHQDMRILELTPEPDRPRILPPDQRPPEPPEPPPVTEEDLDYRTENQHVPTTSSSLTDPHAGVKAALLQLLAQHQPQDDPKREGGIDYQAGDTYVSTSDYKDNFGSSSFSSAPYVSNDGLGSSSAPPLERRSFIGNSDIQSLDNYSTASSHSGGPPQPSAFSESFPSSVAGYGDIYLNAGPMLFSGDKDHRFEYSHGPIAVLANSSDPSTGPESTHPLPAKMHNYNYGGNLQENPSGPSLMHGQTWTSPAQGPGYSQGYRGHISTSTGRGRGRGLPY
Chain of CDK13 (O75909 whole entry partner, species assumed): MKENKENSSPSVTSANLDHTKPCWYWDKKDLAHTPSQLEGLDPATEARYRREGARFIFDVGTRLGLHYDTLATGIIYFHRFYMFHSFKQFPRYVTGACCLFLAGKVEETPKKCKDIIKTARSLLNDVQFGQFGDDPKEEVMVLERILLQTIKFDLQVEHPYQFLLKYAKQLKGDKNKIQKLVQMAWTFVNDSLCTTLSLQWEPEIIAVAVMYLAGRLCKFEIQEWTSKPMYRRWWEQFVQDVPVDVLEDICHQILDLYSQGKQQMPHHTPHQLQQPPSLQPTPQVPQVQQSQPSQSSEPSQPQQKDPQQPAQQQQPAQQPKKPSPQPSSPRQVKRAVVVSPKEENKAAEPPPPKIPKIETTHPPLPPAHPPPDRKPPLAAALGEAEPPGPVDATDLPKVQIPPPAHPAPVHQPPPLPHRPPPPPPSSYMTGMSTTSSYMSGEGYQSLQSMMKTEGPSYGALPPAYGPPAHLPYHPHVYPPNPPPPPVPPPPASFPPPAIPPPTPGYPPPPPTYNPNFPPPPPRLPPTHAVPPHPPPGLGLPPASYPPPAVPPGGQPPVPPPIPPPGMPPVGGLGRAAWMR

Compound | IC50 [1] [µM] | IC50 [2] [µM] | Kd [3] [µM] | Jurkat Cells, CDK7 Target Occ50 [4] | Jurkat Cells, CDK12 Target Occ50 [5] [µM] | Fold CDK7 Target Occ50 over CDK12 Target Occ50 ([4]; printed in brackets beside the CDK7 Occ50) [×]
C=CC(=O)NCc1ccc(-c2ccc([C@H](C)C(=O)Nc3cc(C4CC4)[nH]n3)cc2)cn1 [Compound 8, (S)-N-((5-(4-(1-((5-cyclopropyl-1H-pyrazol-3-yl)amino)-1-oxopropan-2-yl)phenyl)pyridin-2-yl)methyl)acrylamide] | 0.0038 | 5.38 | < 0.05 | >>2 μM | 0.022 | –
C=CC(=O)NC1(c2ccc(-c3ccc([C@H](C)C(=O)Nc4cc(C5CC5)[nH]n4)cc3)cn2)CC1 [Compound 18, (S)-N-(1-(5-(4-(1-((5-cyclopropyl-1H-pyrazol-3-yl)amino)-1-oxopropan-2-yl)phenyl)pyridin-2-yl)cyclopropyl)acrylamide] | 0.119 | 5.45 | < 0.05 | – | – | –
C=CC(=O)NC(C)c1ccc(-c2ccc([C@H](C)C(=O)Nc3cc(C4CC4)[nH]n3)cc2)cn1 (stereo partly drawn) [Compound 20, N-(1-(5-(4-((S)-1-((5-cyclopropyl-1H-pyrazol-3-yl)amino)-1-oxopropan-2-yl)phenyl)pyridin-2-yl)ethyl)acrylamide] | 0.0362 | 2.87 | < 0.05 | – | – | –

More lines, now with the values ahead:

IC50 [1] [µM] | IC50 [2] [µM] | Kd [3] [µM] | Jurkat Cells, CDK7 Target Occ50 [4] | Jurkat Cells, CDK12 Target Occ50 [5] [µM] | Fold CDK7 Target Occ50 over CDK12 Target Occ50 ([4]; printed in brackets beside the CDK7 Occ50) [×] | Compound
0.0877 | 1.31 | < 0.05 | – | – | – | C=CC(=O)NCc1ncc(-c2ccc([C@H](C)C(=O)Nc3cc(C4CC4)[nH]n3)cc2)cc1F [Compound 21, (S)-N-((5-(4-(1-((5-cyclopropyl-1H-pyrazol-3-yl)amino)-1-oxopropan-2-yl)phenyl)-3-fluoropyridin-2-yl)methyl)acrylamide]
0.0209 | 5.3 | < 0.05 | – | – | – | C=CC(=O)NCc1ccc(-c2ccc(C(C)C(=O)Nc3cc(C4CC4)[nH]n3)cc2)nc1 (centres unmarked) [Compound 22, N-((6-(4-(1-((5-cyclopropyl-1H-pyrazol-3-yl)amino)-1-oxopropan-2-yl)phenyl)pyridin-3-yl)methyl)acrylamide]
– | – | – | 0.61 µM | 0.23 | 2 | C=CC(=O)NCc1ccc(-c2cccc(C(C)C(=O)Nc3cc(C4CC4)[nH]n3)c2)cn1 (centres unmarked) [Compound A]

Source: patent US20230212142A9, “Substituted 5-Cyclopropyl-1H-pyrazole-3-yl-amine Derivatives as Selective CDK12/13 Inhibitors” (Aurigene Discovery Technologies Limited, priority 2019, published 2023)
